Key:
[1] = system: Phosphodiesterase 3 (Canis lupus familiaris); test: In vitro inhibition of cAMP Phosphodiesterase 3 at a concentration of 10 uM
[2] = system: Phosphodiesterase 3 (Canis lupus familiaris); test: In vitro inhibition of cAMP PDE III by the compound at a concentration of 10 uM
[3] = target: Phosphodiesterase 3 (Canis lupus familiaris); test: In vitro inhibitory activity against cAMP PDE III.
[4] = target: Phosphodiesterase 3 (Canis lupus familiaris); test: Inhibition of cAMP Phosphodiesterase 3
[5] = system: Phosphodiesterase 3 (Canis lupus familiaris); test: Inhibition of cAMP Phosphodiesterase 3 at 10 uM
[6] = target: Phosphodiesterase 3 (Canis lupus familiaris); test: Inhibition of cAMP PDE 3
[7] = system: Phosphodiesterase 3 (Canis lupus familiaris); test: Inhibition of cAMP PDE 3 at 10 uM
[8] = target: Phosphodiesterase 3 (Canis lupus familiaris); test: Inhibition of cAMP PDE 3; remark: listed apart in the source

Row | Compound | inhibition [1] | inhibition [2] | IC50 [3] | other results
1 | Cn1c(=O)ccc2c(-c3ccccc3)nccc21 | 36% | – | – | –
2 | Oc1ccc2c(-c3ccc(Br)cc3)nccc2n1 | 55% | – | – | –
3 | CC(=O)c1nccc2nc(O)ccc12 | – | 85% | 1.42 µM | –
4 | Cc1cn(-c2nccc3nc(O)ccc23)cn1 | – | 72% | 2.8 µM | –
5 | Cc1ncn(-c2nccc3nc(O)ccc23)c1C | 28% | – | – | –
6 | Cc1nccc2nc(O)c(O)cc12 | 51% | – | – | –
7 | Cc1c2ccc(=O)[nH]c2cc[n+]1[O-] | – | 65% | 3.1 µM | –
8 | Cc1nccc2nc(O)c(C(N)=O)cc12 | 39% | – | – | –
9 | Cc1cc2cnccc2nc1O | 37% | – | – | –
10 | Cc1cc2nc(O)ccc2cn1 | 53% | – | – | –
11 | Oc1ccc2c(-c3cccs3)nccc2n1 | – | 79% | 0.14 µM | –
12 | Cc1nccn1-c1nccc2nc(O)ccc12 | 34% | – | – | –
13 | Cc1cn(-c2nccc3c2ccc(=O)n3C)cn1 | 21% | – | – | –
14 | Cc1cnn(-c2nccc3nc(O)ccc23)c1 | 30% | – | – | –
15 | Cc1nccc2nc(S)ccc12 | 81% | – | – | IC50 [4]: 0.96 µM
16 | Oc1ccc2c(-c3ccco3)nccc2n1 | – | 74% | 0.14 µM | –
17 | COc1ccc2c(C)nccc2n1 | 21% | – | – | –
18 | COc1ccc(-c2nccc3nc(O)ccc23)cc1 | – | 64% | 3.2 µM | –
19 | Cc1ncc([N+](=O)[O-])n1-c1nccc2nc(O)ccc12 | 18% | – | – | –
20 | Oc1ccc2c(C(Cl)Cl)nccc2n1 | – | – | – | inhibition [5]: 83%; IC50 [6]: 0.16 µM
21 | Oc1ccc2c(-n3cccn3)nccc2n1 | 39% | – | – | –
22 | Oc1ccc2c(-n3cncn3)nccc2n1 | – | – | – | inhibition [5]: 50%
23 | Oc1ccc2cnccc2n1 | – | 55% | 18.8 µM | –
24 | Cc1nccc2nc(O)c(C#N)cc12 | 52% | – | – | –

Row | Compound | inhibition [1] | inhibition [2] | IC50 [3] | other results
25 | Cc1nccc2nc(N)ccc12 | 24% | – | – | –
26 | OCc1nccc2nc(O)ccc12 | – | 58% | 3.7 µM | –
27 | Cc1ncn(-c2nccc3nc(O)ccc23)n1 | 39% | – | – | –
28 | Nc1ccc(-c2nccc3nc(O)ccc23)cc1 | – | 91% | 0.23 µM | –
29 | Oc1ccc2c(-c3ccc(Cl)cc3)nccc2n1 | – | 78% | 0.3 µM | –
30 | Cc1nccc2[nH]c(=O)ccc12 [MEDORINONE] | – | – | – | inhibition [7]: 67%; IC50 [8]: 0.55 µM
31 | Oc1ccc2c(Br)nccc2n1 | – | – | – | inhibition [5]: 70%; IC50 [6]: 0.17 µM
32 | Cc1nccc2c1ccc(=O)n2C | 17% | – | – | –
33 | Oc1ccc2c(-c3ccccc3)nccc2n1 | – | 78% | 1.4 µM | –
34 | Cc1nccc2nc(O)c(N)cc12 | 59% | – | – | –
35 | OCc1cn(-c2nccc3nc(O)ccc23)cn1 | 58% | – | – | –
36 | Cc1nccc2nc(Cl)ccc12 | – | – | – | inhibition [5]: 18%
37 | Oc1ccc2c(-c3ccc(F)cc3)nccc2n1 | – | 78% | 0.94 µM | –
38 | CCc1nccc2nc(O)ccc12 | – | 87% | 0.04 µM | –
39 | CC(C)Cc1nccc2nc(O)ccc12 | – | 81% | 0.57 µM | –
40 | Oc1ccc2c(-n3ccnc3)nccc2n1 | 56% | – | – | –
41 | Oc1ccc2c(-n3cnc(C(F)(F)F)c3)nccc2n1 | 13% | – | – | –
42 | O=[N+]([O-])c1cn(-c2nccc3nc(O)ccc23)cn1 | 46% | – | – | –
43 | Oc1ccc2c(-n3cnc(Br)c3)nccc2n1 | – | – | – | inhibition [5]: 43%
44 | Oc1ccc2c(-c3ccncc3)nccc2n1 | – | 78% | 2.2 µM | –
45 | CCCc1nccc2nc(O)ccc12 | – | 83% | 0.048 µM | –
46 | Oc1ccc2c(-n3cnc(-c4ccccc4)c3)nccc2n1 | 43% | – | – | –
47 | Oc1ccc(-c2nccc3nc(O)ccc23)cc1 | 81% | – | – | IC50 [4]: 0.6 µM
